Key:
[1] = test system: isolated rat aorta; experiment: Vasodilative activity, inhibition of contraction induced by epinephrine; settings: in vitro, 10^-5 to 10^-7 molar range
Description: (§1) Example of the anti-cyclooxygenase (I), platelet anti-aggregating (II) and vasodilative (III) properties of the test compounds tested in vitro at concentrations in the molar range from 10^-5 to 10^-7 of the product in water/alcohol with the addition of small amounts of DMSO (dimethylsulphoxide). The activities are expressed as the potency ratio versus the natural product used as a unit standard, as stated in Table

[2] = target: T1, COX-1 (Bos taurus, UniProt O62664); experiment: COX-1 inhibition in isolated cells; type: cell-based, bovine; settings: endothelial cells of bovine aorta, read-out: COX-1 response, % of the controls with response variability; for remaining activity at 1000 µg/mL: 1.0 mg/ml
T1 construct: Endothelial cells of bovine aorta were used as a source of COX-1; endogenous in cells; host or cells: bovine aortic endothelial cells
T1 sequence (O62664 25-600): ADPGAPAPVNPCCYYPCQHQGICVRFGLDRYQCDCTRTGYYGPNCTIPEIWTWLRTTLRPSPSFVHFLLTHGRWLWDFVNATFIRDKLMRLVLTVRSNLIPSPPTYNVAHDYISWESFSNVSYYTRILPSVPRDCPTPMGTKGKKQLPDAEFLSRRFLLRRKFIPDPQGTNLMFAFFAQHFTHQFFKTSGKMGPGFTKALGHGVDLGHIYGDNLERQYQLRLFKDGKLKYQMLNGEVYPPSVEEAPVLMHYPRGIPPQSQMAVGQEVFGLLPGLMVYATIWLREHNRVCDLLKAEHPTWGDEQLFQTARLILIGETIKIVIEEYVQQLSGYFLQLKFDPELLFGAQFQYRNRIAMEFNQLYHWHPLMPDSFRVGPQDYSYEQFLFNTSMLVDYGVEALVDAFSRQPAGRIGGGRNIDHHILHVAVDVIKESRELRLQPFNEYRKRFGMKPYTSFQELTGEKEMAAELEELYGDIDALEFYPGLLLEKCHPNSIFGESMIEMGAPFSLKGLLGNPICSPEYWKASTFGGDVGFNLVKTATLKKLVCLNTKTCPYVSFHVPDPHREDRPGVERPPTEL
Procedure: (§2) The activity inhibiting cyclo-oxygenase was determined in isolated cells. Endothelial cells of bovine aorta were used as a source of COX-1 and macrophage line J774.2 as a source of COX-2. The same conditions described by Mitchell et al. (Proc. Nat. Acad. Sci. 90, 11693, 1993) for growth and the viability test were used.
(§3) In brief, the cells were incubated for 30 minutes with scalar concentrations of the test product and the substrate (arachidonic acid) was then added and incubated for another 15 minutes. Enzyme activity was determined radioimmunologically by measuring the formation of 6-keto-PGF 1 alpha. In the case of cell lines J.774.2, the cells were incubated for 12 hours with endotoxin to promote COX-2 formation.
(§4) Study of the anti-cyclooxygenase (COX-1/COX-2) properties in isolated cells.
(§5) Response expressed as a % of the controls with relative response variability.

[3] = target: T2, COX-2 (Mus musculus, UniProt Q05769); experiment: COX-2 inhibition in isolated cells; type: cell-based; settings: macrophage line J774.2 with endotoxin, read-out: COX-2 response, % of the controls with response variability; for remaining activity at 100 µg/mL: 0.1 mg/ml; for remaining activity at 1000 µg/mL: 1.0 mg/ml
T2 construct: endogenous in cells; host or cells: J774.2 macrophages, 12 h with endotoxin
T2 sequence (Q05769 18-604): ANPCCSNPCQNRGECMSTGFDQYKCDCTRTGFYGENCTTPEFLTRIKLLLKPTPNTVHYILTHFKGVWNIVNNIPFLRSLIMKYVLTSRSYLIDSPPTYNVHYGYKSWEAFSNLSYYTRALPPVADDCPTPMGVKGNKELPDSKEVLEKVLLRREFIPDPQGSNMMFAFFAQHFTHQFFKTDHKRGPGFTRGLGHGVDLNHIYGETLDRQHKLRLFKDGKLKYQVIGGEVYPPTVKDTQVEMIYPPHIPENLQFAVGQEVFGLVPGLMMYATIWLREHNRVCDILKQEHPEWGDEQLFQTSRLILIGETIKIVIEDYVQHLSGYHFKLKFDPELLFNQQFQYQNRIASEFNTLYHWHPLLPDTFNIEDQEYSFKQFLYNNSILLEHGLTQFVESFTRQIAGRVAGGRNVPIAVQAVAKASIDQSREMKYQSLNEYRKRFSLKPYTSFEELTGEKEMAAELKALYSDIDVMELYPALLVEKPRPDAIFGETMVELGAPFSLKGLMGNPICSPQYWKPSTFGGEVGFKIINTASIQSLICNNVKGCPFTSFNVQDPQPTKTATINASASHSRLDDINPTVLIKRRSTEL
Procedure: as §2, §3, §4, §5

[4] = test system: nitrosynthetase (NOS); experiment: Nitrosynthetase (NOS) activity induced by LPS in rats; type: in vivo, rat; settings: oral, LPS only = 100
Procedure: The nitrosynthetase inhibition activity induced by lipopolysaccharide (LPS) was determined in rat neutrophils and stomach after administration of one of the test compounds and compared with that obtained after treatment of the suspension vehicle only.
In brief, Wistar rats fasting for 24 hours before treatment were orally administered the test product (10 mg/Kg) and intravenously (caudal vein) administered LPS (5 mg/Kg).
Four hours later the animals were sacrificed and the blood--for neutrophils isolation--and the stomach taken.
Enzyme activity was determined in accordance with the method described by Assreuy et al. (Br. J. Pharmacol. 108, 833, 1993).
Study of the inhibitory properties of the nitrosynthetase (NOS) activity induced by liposaccharide (LPS) in rats using oral doses ranging from 5 to 20 mg/Kg suspended in a carboxymethylcellulose base.

[5] = test system: cyclo-oxygenase; experiment: Anti-cyclooxygenase activity; type: cell-based
Procedure: as §2, §3, §1

[6] = test system: Swiss mice; experiment: Analgesic activity (Hendershot et al.); type: in vivo; settings: oral 3 to 30 mg/Kg in carboxymethylcellulose, natural product = 1.0
Procedure: (§6) Study of the anti-inflammatory (I) and analgesic (II) properties (pharmacodynamics) and gastrointestinal tolerance (III) (toxicity) of the test compounds after oral administration of doses ranging from 3 to 30 mg/Kg in carboxymethylcellulose suspensions and constructing dose-responsecurves. […] Activities are expressed as the potency ratio compared to the natural product used as a unit standard.

[7] = test system: carrageenin-oedema; experiment: Anti-inflammatory activity, carrageenin-oedema method; type: in vivo; settings: rats, oral 3 to 30 mg/Kg in carboxymethylcellulose; natural product = 1.0
Procedure: as §6

[8] = test system: gastropathy; experiment: Gastric tolerance, severity of induced gastropathy; settings: rats, oral 3 to 30 mg/Kg in carboxymethylcellulose; natural product = 1.0
Procedure: Gastric tolerance was measured by oral administration to rats assessing the severity of the gastropathy induced in accordance with the criteria described by Wallace et al. (Am. J. Physiol. 259, G642, 1990).
Study of the anti-inflammatory (I) and analgesic (II) properties (pharmacodynamics) and gastrointestinal tolerance (III) (toxicity) of the test compounds after oral administration of doses ranging from 3 to 30 mg/Kg in carboxymethylcellulose suspensions and constructing dose-responsecurves.
Activities are expressed as the potency ratio compared to the natural product used as a unit standard. The nitroderivative is that of the shown examples, the natural reference compound is that shown as a reference.

[9] = test system: human platelets stimulated by thrombin; experiment: Platelet anti-aggregating activity in vitro; type: cell-based; settings: 10^-5 to 10^-7 molar range, natural product = 1.0
Description: as §1

Structure (SMILES)	analgesic properties (II), potency ratio versus natural reference product [6]	anti-inflammatory properties (I), potency ratio versus natural reference product [7]	gastrointestinal tolerance (III) (toxicity), potency ratio versus natural reference product [8]	other results
CC(=O)Oc1ccccc1C(=O)O [ASPIRIN, acetylsalicylic acid, reference compound]	–	–	–	vasodilative (III), % of inhibitory action of the vasospasm induced by epinephrine [1]: inactive
O=C(Cc1ccccc1Nc1c(Cl)cccc1Cl)OCCCCO[N+](=O)[O-] [DICLOFENAC NITROXYBUTYLESTER, reference compound]	–	–	–	remaining activity at 100 µg/mL ([2]; 0.1 mg/ml): 45 ± 22%; remaining activity at 1000 µg/mL [2]: 24 ± 10%; remaining activity at 100 µg/mL [3]: 68 ± 11%; remaining activity at 1000 µg/mL [3]: 41 ± 11%; NOS, neutrophils; inhibition relative to the group treated with LPS only [4]: 49; NOS, stomach; inhibition relative to the group treated with LPS only [4]: 37; direct inhibition of cyclo-oxygenase COX-1 and COX-2 ([5]; Table 4 data): capable of directly inhibiting cyclo-oxygenase COX-1 and COX-2
O=C(O)Cc1ccccc1Nc1c(Cl)cccc1Cl [DICLOFENAC, reference compound]	–	–	–	vasodilative (III), % of inhibitory action of the vasospasm induced by epinephrine [1]: inactive
CC(=O)Oc1ccccc1C(=O)OCCOCCO[N+](=O)[O-] [Example 1a, 2-acetoxy-benzoate of 2-[2-(nitroxy)ethoxy]ethyl]	1.1	1.2	0.2	vasodilative (III), % of inhibitory action of the vasospasm induced by epinephrine [1]: 60%; anti-cyclooxygenase (I), potency ratio versus natural product ([5]; in vitro, 10^-5 to 10^-7 molar range, natural product = 1.0): 1.5; platelet anti-aggregating (II), potency ratio versus natural product [9]: 3.0
CC(C)Cc1ccc(C(C)C(=O)OCCOCCO[N+](=O)[O-])cc1 (centres unmarked) [Example 1d]	1.1	1.0	0.1	–
CC(C(=O)OCCOCCO[N+](=O)[O-])c1ccc(-c2ccccc2)c(F)c1 (centres unmarked) [Example 1e]	1.0	1.0	0.1	remaining activity at 1000 µg/mL [2]: 22 ± 3%; remaining activity at 100 µg/mL [3]: 47 ± 4%; remaining activity at 1000 µg/mL [3]: 18 ± 2%
O=C(c1ccccc1)c1ccc2n1CCC2C(=O)OCCOCCO[N+](=O)[O-] (centres unmarked) [Example 1f]	1.0	1.0	0.1	–
CC(C(=O)OCCOCCO[N+](=O)[O-])c1ccc(C(=O)c2ccccc2)s1 (centres unmarked) [Example 1g]	1.3	0.9	0.1	–
COc1ccc2cc(C(C)C(=O)OCCOCCO[N+](=O)[O-])ccc2c1 (centres unmarked) [Example 1h]	1.3	1.3	0.1	–
CC(C(=O)O)c1ccc(-c2ccccc2)c(F)c1 (centres unmarked) [FLURBIPROFEN, reference compound]	1.0	1.0	–	–
CC(C)Cc1ccc(C(C)C(=O)O)cc1 (centres unmarked) [IBUPROFEN, reference compound]	1.0	1.0	1.0	–
CC(C(=O)O)c1cccc(C(=O)c2ccccc2)c1 (centres unmarked) [KETOPROFEN, 2-(3-benzoyl)phenyl propionic acid, reference compound]	–	–	–	vasodilative (III), % of inhibitory action of the vasospasm induced by epinephrine [1]: inactive
O=C(c1ccccc1)c1ccc2n1CCC2C(=O)O (centres unmarked) [KETOROLAC, reference compound]	1.0	1.0	1.0	–
CC(C(=O)OCCCCO[N+](=O)[O-])c1cccc(C(=O)c2ccccc2)c1 (centres unmarked) [NITROXYBUTYLKETOPROFEN, reference compound]	–	–	–	NOS, neutrophils; inhibition relative to the group treated with LPS only [4]: 55; NOS, stomach; inhibition relative to the group treated with LPS only [4]: 35
CC(C(=O)O)c1ccc(C(=O)c2ccccc2)s1 (centres unmarked) [TIAPROFENIC ACID, reference compound]	1.0	1.0	1.0	–
